Laboratory results as given in PubChem BioAssay (NCI).
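Tested at 5 concentrations; 48 h exposure; 96-well plates; endpoints linearly interpolated, else capped at highest concentration. TGI denotes the concentration required for complete inhibition of growth.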

Experiments:
Test in all cases: growth of human tumour cells (NCI), 48 h
HCC-2998 colon = system: HCC-2998 colon
SNB-75 CNS = system: SNB-75 CNS
UACC-62 melanoma = system: UACC-62 melanoma
TK-10 renal = system: TK-10 renal
786-0 renal = system: 786-0 renal
OVCAR-8 ovarian = system: OVCAR-8 ovarian
M14 melanoma = system: M14 melanoma
HCT-15 colon = system: HCT-15 colon
SN12C renal = system: SN12C renal
A549 NSCLC = system: A549 NSCLC
SK-MEL-5 melanoma = system: SK-MEL-5 melanoma
NCI-H23 lung = system: NCI-H23 lung
LXFL 529 NSCLC = system: LXFL 529 NSCLC
K-562 leukemia = system: K-562 leukemia
OVCAR-4 ovarian = system: OVCAR-4 ovarian
SF-539 CNS = system: SF-539 CNS
SNB-78 CNS = system: SNB-78 CNS
LOX IMVI melanoma = system: LOX IMVI melanoma
SF-268 CNS = system: SF-268 CNS
SR leukemia = system: SR leukemia
DLD-1 colon = system: DLD-1 colon
MOLT-4 leukemia = system: MOLT-4 leukemia
KM12 colon = system: KM12 colon
OVCAR-3 ovarian = system: OVCAR-3 ovarian
RXF 393 renal = system: RXF 393 renal
OVCAR-5 ovarian = system: OVCAR-5 ovarian
RPMI-8226 leukemia = system: RPMI-8226 leukemia
SK-MEL-28 melanoma = system: SK-MEL-28 melanoma
IGROV1 ovarian = system: IGROV1 ovarian
A498 renal = system: A498 renal
NCI-H226 lung = system: NCI-H226 lung
U251 CNS = system: U251 CNS
HOP-18 NSCLC = system: HOP-18 NSCLC
NCI-H460 lung = system: NCI-H460 lung
MALME-3M melanoma = system: MALME-3M melanoma
UO-31 renal = system: UO-31 renal
M19-MEL melanoma = system: M19-MEL melanoma
SK-OV-3 ovarian = system: SK-OV-3 ovarian
SW-620 colon = system: SW-620 colon
HL-60(TB) leukemia = system: HL-60(TB) leukemia
CCRF-CEM leukemia = system: CCRF-CEM leukemia
DMS 114 small cell lung = system: DMS 114 small cell lung
EKVX NSCLC = system: EKVX NSCLC
HT29 colon = system: HT29 colon
DMS 273 small cell lung = system: DMS 273 small cell lung
SNB-19 CNS = system: SNB-19 CNS
SF-295 CNS = system: SF-295 CNS
ACHN renal = system: ACHN renal
PC-3 prostate = system: PC-3 prostate
MDA-N = system: MDA-N
MCF7 breast = system: MCF7 breast
HS 578T breast = system: HS 578T breast
T-47D breast = system: T-47D breast
NCI/ADR-RES ovarian = system: NCI/ADR-RES ovarian
MDA-MB-231 breast = system: MDA-MB-231 breast
HOP-92 NSCLC = system: HOP-92 NSCLC
CAKI-1 renal = system: CAKI-1 renal
COLO 205 colon = system: COLO 205 colon
UACC-257 melanoma = system: UACC-257 melanoma
SK-MEL-2 melanoma = system: SK-MEL-2 melanoma
MDA-MB-435 = system: MDA-MB-435
HCT-116 colon = system: HCT-116 colon
NCI-H522 lung = system: NCI-H522 lung
BT-549 breast = system: BT-549 breast
DU-145 prostate = system: DU-145 prostate
HOP-62 NSCLC = system: HOP-62 NSCLC

Measured: TGI

C=CC[P@]1(=O)O[C@H](c2ccccc2)[C@H](C)N1C
not listed: PC-3 prostate | MDA-N | MCF7 breast | HS 578T breast | T-47D breast | NCI/ADR-RES ovarian | MDA-MB-231 breast | HOP-92 NSCLC | CAKI-1 renal | COLO 205 colon | UACC-257 melanoma | SK-MEL-2 melanoma | MDA-MB-435 | HCT-116 colon | NCI-H522 lung | BT-549 breast | DU-145 prostate | HOP-62 NSCLC
> 100 µM: all other assays above

COC1(OC)N=C(N)C2(C#N)C(c3ccccc3)NC3=C(CCC3)C12C#N (stereo not drawn)
not listed: SNB-75 CNS | LXFL 529 NSCLC | K-562 leukemia | SF-539 CNS | SNB-78 CNS | DLD-1 colon | OVCAR-3 ovarian | HOP-18 NSCLC | M19-MEL melanoma | DMS 114 small cell lung | DMS 273 small cell lung
> 100 µM: all other assays above
